Assay results reported in US20260207718A1, “METHODS FOR TREATING LATE ONSET POMPE DISEASE IN PEDIATRIC PATIENTS” (Amicus Therapeutics, Inc., priority 2022, published 2026).

Assays:
[1] = biological target: CIMPR (Homo sapiens, UniProt P11717); test: CIMPR affinity chromatography (bound vs unbound rhGAA by GAA activity); assay type: binding
From the text: Multiple batches of the rhGAA according to the disclosure were produced in shake flasks and in perfusion bioreactors using CHO cell line GA-ATB200, the product of which is referred to as “ATB200.” Weak anion exchange (“WAX”) liquid chromatography was used to fractionate ATB200 rhGAA according to terminal phosphate and sialic acid. Elution profiles were generated by eluting the ERT with increasing amount of salt. The profiles were monitored by UV (A280 nm).
To evaluate the ability of the conventional rhGAAs in MYOZYME® and LUMIZYME® to interact with the CIMPR, the two conventional rhGAA preparations were injected onto a CIMPR affinity column (which binds rhGAA having M6P groups) and the flow through collected. The bound material was eluted with a free M6 gradient. Fractions were collected in 96-well plate and GAA activity assayed by 4MU-α-glucosidase substrate. The relative amounts of unbound (flow through) and bound (M6P eluted) rhGAA were determined based on GAA activity and reported as the fraction of total enzyme. […] Indeed, only 27% of the rhGAA in MYOZYME® and 22% of the rhGAA in LUMIZYME® contained M6P that can be productive to target it to the CIMPR on muscle cells.

[2] = tested on: Gaa KO mice; test: Single fiber analysis (LAMP1/LC3) of muscle fibers from Gaa KO mice; assay type: in vivo
From the text: FIG. 17 depicts co-immunofluorescent staining of LAMP1 (green) (see for example, “B”) and LC3 (red) (see, for example, “A”) in single fibers isolated from the white gastrocnemius of Gaa KO mice treated with a vehicle, alglucosidase alfa, or ATB200. “C” depicts clearance of autophagic debris and absence of enlarged lysosome. A minimum of 30 fibers were examined from each animal.
As a result, a significant portion of muscle fibers analyzed (36-60%) from ATB200-treated mice appeared normal or near-normal.

[3] = tested on: pediatric LOPD patient; conditions: (failed); 20 mg/kg Q2W (M)
[4] = tested on: Gaa KO mice; test: Co-administration of ATB200 and miglustat in Gaa KO mice (tissue glycogen, LAMP1, LC3, dysferlin); assay type: in vivo; conditions: FIG. 15B
Method: The therapeutic effects of ATB200 and miglustat were evaluated and compared against those of Alglucosidase alfa in Gaa KO mice. For the study, male Gaa KO (3- to 4-month old) and age-matched wild-type (WT) mice were used. Alglucosidase alfa was administered via bolus tail vein intravenous (IV) injection. In the co-administration regimen, miglustat was administered via oral gavage (PO) 30 minutes prior to the IV injection of ATB200. Treatment was given biweekly. Treated mice were sacrificed after 14 days from the last administration and various tissues were collected for further analysis. Table 11 summarizes the study design:
Tissue glycogen content in tissues samples was determined using amyloglucosidase digestion, as discussed above.
Tissue samples were also analyzed for biomarker changes following the methods discussed in: Khanna R, et al. (2012), “The pharmacological chaperone AT2220 increases recombinant human acid α-glucosidase uptake and glycogen reduction in a mouse model of Pompe disease,” Plos One 7(7): e40776; and Khanna, R et al. (2014), “The Pharmacological Chaperone AT2220 Increases the Specific Activity and Lysosomal Delivery of Mutant Acid α-Glucosidase, and Promotes Glycogen Reduction in a Transgenic Mouse Model of Pompe Disease,” PLOS ONE 9(7): e102092.

[5] = tested on: LOPD population (ERT-naïve and ERT-experienced); test: Indirect treatment comparison, multi-level network meta regression (ML-NMR); parameters: species or system human; conditions: base-case scenario, sensitivity analysis (RCT data only)
Method: Moreover, a comparison of three randomized clinical trials (LOTS: alglucosidase alfa vs placebo; COMET: avalglucosidase alfa vs alglucosidase alfa; and PROPEL: cipaglucosidase alfa/miglustat vs alglucosidase alfa) share 6 MWD and % predicted FVC as key primary or secondary endpoints. Using patient-level data from the PROPEL randomized clinical trial (RCT) plus aggregate published data from other RCTs, Phase I/II and open label extension trials, a multi-level network meta-regression was conducted, adjusting for various baseline covariates including previous ERT duration. The base case scenario had covariates resembling the PROPEL population (naïve and ERT-experienced) and analyzed 6 MWD and FVC change from baseline at 52 weeks. […]
A systematic literature review (SLR) was conducted to identify relevant published clinical studies of ERTs in LOPD. Outcomes assessed were change from baseline in 6-minute walking distance (6 MWD) (m) and in forced vital capacity (FVC; % predicted) at week 52, acknowledged by clinicians, HTA agencies and payers as key LOPD trial endpoints. […]
A base-case scenario was evaluated in which all covariates were set to the target population of the PROPEL trial. […]

[6] = tested on: adult subjects with late-onset Pompe disease (LOPD); conditions: in vivo
From the text: (§1) Efficacy assessments (i.e., functional assessments) included evaluation of ambulatory function (6 MWT), motor function tests (Gait, Stair, Gower, and Chair maneuver (GSGC) test and Timed Up and Go (TUG) test), muscle strength (manual muscle testing and quantitative muscle testing), and pulmonary function tests (FVC, SVC, MIP, MEP, and SNIP).
(§2) The primary efficacy endpoint was the change from baseline to Week 52 in 6 MWD.
(§3) Key secondary efficacy endpoints in a pre-specified hierarchical order of importance were as follows. These secondary endpoints were analyzed using analysis of covariance (ANCOVA) model with last observation carried forward (ITT LOCF). • change from baseline to Week 52 in sitting FVC (% predicted) • change from baseline to Week 52 in the manual muscle test score for the lower extremities • change from baseline to Week 52 in the total score for the PROMIS—physical function • change from baseline to Week 52 in the total score for the PROMIS—fatigue • change from baseline to Week 52 in GSGC total score
(§4) PROPEL was a 52-week, double-blind randomized global study designed to assess the efficacy, safety and tolerability of AT-GAA compared to the current standard of care, alglucosidase alfa, an enzyme replacement therapy (ERT).
(§5) Patients enrolled in PROPEL were randomized 2:1 so that for every two patients randomized to be treated with AT-GAA, one was randomized to be treated with alglucosidase alfa.

[7] = tested on: subjects with late-onset Pompe disease (LOPD); conditions: cited from earlier work
[8] = tested on: adult subjects with late-onset Pompe disease (LOPD); test: ATB200-03 (PROPEL) phase 3 trial; conditions: for absolute decline in percent-predicted FVC: 52 weeks; for mean change in total GSGC score: baseline to week 52, overall population
From the text: as §1, §2, §3, §4, §5

Sequence of CIMPR (P11717 41-2491, species assumed): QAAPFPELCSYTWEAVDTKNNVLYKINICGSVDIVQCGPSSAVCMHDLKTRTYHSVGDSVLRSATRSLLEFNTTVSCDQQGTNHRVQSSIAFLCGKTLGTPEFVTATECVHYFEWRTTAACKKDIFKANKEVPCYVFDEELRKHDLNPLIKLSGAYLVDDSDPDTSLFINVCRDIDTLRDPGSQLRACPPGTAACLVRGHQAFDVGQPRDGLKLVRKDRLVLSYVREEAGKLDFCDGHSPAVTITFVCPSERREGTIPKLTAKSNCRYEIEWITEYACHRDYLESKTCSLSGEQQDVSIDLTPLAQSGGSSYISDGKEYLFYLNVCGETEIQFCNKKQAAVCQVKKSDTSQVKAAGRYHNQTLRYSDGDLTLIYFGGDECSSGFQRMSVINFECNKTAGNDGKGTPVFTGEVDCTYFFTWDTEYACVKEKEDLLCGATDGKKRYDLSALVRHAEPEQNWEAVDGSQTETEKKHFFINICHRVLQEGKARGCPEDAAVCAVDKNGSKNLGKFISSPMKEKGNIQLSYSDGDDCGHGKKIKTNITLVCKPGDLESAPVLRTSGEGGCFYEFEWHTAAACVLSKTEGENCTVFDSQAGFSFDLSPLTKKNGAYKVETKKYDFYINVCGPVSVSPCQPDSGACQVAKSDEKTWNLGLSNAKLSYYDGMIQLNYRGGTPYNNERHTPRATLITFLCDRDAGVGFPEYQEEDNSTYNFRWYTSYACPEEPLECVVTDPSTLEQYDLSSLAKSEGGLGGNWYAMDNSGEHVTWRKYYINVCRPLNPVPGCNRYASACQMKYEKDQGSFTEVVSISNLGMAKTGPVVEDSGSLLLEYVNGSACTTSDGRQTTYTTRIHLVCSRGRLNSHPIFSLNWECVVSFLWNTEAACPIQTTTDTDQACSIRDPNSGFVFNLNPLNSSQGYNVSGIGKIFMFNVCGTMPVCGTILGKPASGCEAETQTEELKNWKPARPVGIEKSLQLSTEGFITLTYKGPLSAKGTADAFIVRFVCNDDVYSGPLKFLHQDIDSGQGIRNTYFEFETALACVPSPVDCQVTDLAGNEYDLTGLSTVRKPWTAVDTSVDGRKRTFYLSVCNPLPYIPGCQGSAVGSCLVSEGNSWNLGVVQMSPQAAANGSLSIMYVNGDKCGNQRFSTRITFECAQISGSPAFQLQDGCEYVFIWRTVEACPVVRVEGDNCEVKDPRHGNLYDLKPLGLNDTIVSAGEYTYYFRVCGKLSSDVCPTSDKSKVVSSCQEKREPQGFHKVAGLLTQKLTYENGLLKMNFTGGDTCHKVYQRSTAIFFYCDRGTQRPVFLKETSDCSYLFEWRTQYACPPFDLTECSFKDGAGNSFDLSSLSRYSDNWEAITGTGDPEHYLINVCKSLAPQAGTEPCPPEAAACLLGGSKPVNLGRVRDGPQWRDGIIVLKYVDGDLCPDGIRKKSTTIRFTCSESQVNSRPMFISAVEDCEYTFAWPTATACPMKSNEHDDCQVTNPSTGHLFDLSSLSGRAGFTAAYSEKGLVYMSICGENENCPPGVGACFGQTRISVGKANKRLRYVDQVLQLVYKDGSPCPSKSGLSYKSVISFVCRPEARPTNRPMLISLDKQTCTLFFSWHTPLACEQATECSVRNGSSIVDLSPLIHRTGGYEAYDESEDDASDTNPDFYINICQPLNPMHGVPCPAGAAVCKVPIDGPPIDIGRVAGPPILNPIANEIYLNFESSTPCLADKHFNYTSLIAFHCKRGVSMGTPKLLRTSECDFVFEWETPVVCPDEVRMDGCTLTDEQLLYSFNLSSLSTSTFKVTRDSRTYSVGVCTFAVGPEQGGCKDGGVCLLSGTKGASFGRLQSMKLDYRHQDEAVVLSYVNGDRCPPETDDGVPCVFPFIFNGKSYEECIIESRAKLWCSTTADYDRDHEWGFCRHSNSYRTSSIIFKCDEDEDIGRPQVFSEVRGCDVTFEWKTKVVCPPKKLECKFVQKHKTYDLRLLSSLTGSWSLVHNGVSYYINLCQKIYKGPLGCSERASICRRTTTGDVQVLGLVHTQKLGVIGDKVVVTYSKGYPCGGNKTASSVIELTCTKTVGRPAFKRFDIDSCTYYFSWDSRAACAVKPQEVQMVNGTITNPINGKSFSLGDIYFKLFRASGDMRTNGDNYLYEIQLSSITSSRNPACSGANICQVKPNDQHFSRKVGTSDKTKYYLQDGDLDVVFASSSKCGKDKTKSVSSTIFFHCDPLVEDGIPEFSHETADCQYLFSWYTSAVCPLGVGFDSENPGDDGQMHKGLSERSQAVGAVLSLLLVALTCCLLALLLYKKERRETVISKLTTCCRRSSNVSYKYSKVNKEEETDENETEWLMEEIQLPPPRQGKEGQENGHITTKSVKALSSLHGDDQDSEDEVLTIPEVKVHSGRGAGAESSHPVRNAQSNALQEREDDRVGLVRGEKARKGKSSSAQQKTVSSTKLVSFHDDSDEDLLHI

For “MYOZYME®: conventional rhGAA product containing alglucosidase alfa (Sanofi Genzyme)”, the “rhGAA that bound to the CIMPR” value [1] was 27%, the “rhGAA that did not bind to the CIMPR (fraction of total enzyme)” value [1] was 73% and the “lysosome size and autophagic buildup compared to vehicle-treated mice” value ([2]; FIG. 17) was “did not show any significant difference”. The 6MWT [3] was 44.2 m.
In the case of alglucosidase alfa, the “LC3 II level (western blot) / effect on autophagy” value [4] is reported as “modest”, the “Fibers with Autophagy Buildup” value [2] is reported as >90% and the “Fibers with Normal or Near-normal Appearance” value [2] is reported as <10%. For the same substance, the “relative effect for 6MWT and FVC” value [5] was “numerically favourable versus placebo”, the “participants with infusion/injection associated reactions (IARs)” value [6] was 26% and the “patients who discontinued treatment due to an adverse event” value [6] was 2.6%. The “subjects who did not show an initial improvement during treatment” value ([7]; 368 subjects with LOPD from published studies) was > 30%, the “duration of improvements in initial responders” value ([7]; longer-term studies) was “approximately 2 years” and the “absolute decline in percent-predicted FVC” value ([8]; ERT switch patients) was 4.0%. For the same substance, the “FVC, CFBL at Week 52” value ([8]; ERT switch population) was −4.0 % predicted, the “6MWD, CFBL at Week 52” value ([8]; ERT switch population (n=95)) was 0.0 m and the “6MWD, CFBL at Week 52” value ([8]; ERT treatment naive population) was 38 m. The “FVC, CFBL at Week 52” value ([8]; ERT treatment naive population) was −3.6 % predicted, the “6MWD, CFBL at Week 52” value ([8]; ERT treatment naive population, listed as Alglucosidase alfa) was “+38.3 m” and the “mean urinary Glc4 concentration” value ([8]; ERT-experienced patients, Week 52 (baseline 4.6 ATB200/miglustat, 7.2 alglucosidase alfa with placebo)) was 9.1 mmol/mol. The “mean change in CK (creatine kinase)” value ([8]; after 52 weeks) was “+15.6%”, the “mean change (SD) in MMT score for lower extremities” value ([8]; baseline to week 52) was 0.9 (2.58) and the “mean change in total GSGC score” value [8] was “worsening”. For the same substance, the “mean change in total GSGC score” value ([8]; listed as alglucosidase alfa and placebo) was 0.77 (1.8), the “absolute decline in percent-predicted FVC” value ([8]; combined population) was 4.0% and the “mean change of urine Hex-4” value ([8]; combined population, after 52 weeks) was “+11.0%”. For the same substance, the “6MWD, CFBL at Week 52” value ([8]; overall ERT switch and ERT naïve population) was 7 m, the “6MWD, CFBL at Week 52” value ([8]; overall ERT switch and ERT naïve population, listed as Alglucosidase alfa) was “+7.2 m” and the “FVC, CFBL at Week 52” value ([8]; overall population) was −4.0 % predicted.
